One series addresses T1, human TRPM8 (Homo sapiens, UniProt Q7Z2W7).
T1 construct: The full-length human TRPM8 gene was amplified from plasmid RC220615 (manufactured by Origene) using a PCR method; host or cells: Flp-In T-REx 293 cells ('Flp-In293293 cells' [sic]), pcDNA5/FRT/TO, doxycycline-induced
Briefly: Evaluation of cooling intensity (TRPM8 activity evaluation), calcium fluorescence in human TRPM8 stable expression cells. It counts as cell-based. As to conditions: TRPM8 activation action, Fluo4-AM fluorescence, 0.1 μM to 1000 μM, 32° C. The procedure: The full-length human TRPM8 gene was amplified from plasmid RC220615 (manufactured by Origene) using a PCR method. The obtained PCR product was subcloned into pcDNA5/FRT/TO (manufactured by Thermo Fisher Scientific K.K.), and then it was introduced into Flp-In293293 cells (manufactured by Thermo Fisher Scientific K.K.) by using a Flp-InT-REx system (manufactured by Thermo Fisher Scientific K.K.), so that a human TRPM8 stable expression cell line was prepared.
The cultured human TRPM8 stable expression cells were seeded at a ratio of 50,000 cells/well to a poly-D-lysine-coated 96-well microplate (manufactured by Corning Incorporated), 1 μg/mL of doxycycline (manufactured by Takara Bio Inc.) was added thereto, and then the seeded cells were cultured at 37° C. for one night, so that the expression of the human TRPM8 was induced.
The culture solution was replaced with a buffer solution, and then, a fluorescent calcium indicator (Fluo4-AM: manufactured by Dojindo Laboratories) was added thereto, the cells were incubated at 37° C. for 30 minutes, and they were transferred to a fluorescent microplate reader (FlexStation3: manufactured by Molecular Devices, LLC.). Each of the compounds obtained in Examples and comparative compounds was added in a final concentration range of 0.1 μM to 1000 μM, and the changes in fluorescence having a wavelength of 525 nm when excited at a wavelength of 485 nm were measured at a device temperature of 32° C., and then EC50 values were determined.

Another series concerns oral cavity. Nature of the series: Sensory evaluation of 30 ppm aqueous solutions in the mouth by four flavorists. It is filed as in vivo, human. The procedure:
The evaluation was performed by four flavorists. The aqueous solution was taken into the mouth and spat out after the mouth was rinsed, and cooling intensity, cool-feeling persistence, and quality of a cool-feeling in the oral cavity were evaluated.

The text below walks through data of patent US11344488B2 (TAKASAGO INTERNATIONAL CORPORATION, priority 2017, dated 2022).

Structures are written as SMILES. Bounds are passed on as bounds.

T1 sequence (Q7Z2W7 whole entry): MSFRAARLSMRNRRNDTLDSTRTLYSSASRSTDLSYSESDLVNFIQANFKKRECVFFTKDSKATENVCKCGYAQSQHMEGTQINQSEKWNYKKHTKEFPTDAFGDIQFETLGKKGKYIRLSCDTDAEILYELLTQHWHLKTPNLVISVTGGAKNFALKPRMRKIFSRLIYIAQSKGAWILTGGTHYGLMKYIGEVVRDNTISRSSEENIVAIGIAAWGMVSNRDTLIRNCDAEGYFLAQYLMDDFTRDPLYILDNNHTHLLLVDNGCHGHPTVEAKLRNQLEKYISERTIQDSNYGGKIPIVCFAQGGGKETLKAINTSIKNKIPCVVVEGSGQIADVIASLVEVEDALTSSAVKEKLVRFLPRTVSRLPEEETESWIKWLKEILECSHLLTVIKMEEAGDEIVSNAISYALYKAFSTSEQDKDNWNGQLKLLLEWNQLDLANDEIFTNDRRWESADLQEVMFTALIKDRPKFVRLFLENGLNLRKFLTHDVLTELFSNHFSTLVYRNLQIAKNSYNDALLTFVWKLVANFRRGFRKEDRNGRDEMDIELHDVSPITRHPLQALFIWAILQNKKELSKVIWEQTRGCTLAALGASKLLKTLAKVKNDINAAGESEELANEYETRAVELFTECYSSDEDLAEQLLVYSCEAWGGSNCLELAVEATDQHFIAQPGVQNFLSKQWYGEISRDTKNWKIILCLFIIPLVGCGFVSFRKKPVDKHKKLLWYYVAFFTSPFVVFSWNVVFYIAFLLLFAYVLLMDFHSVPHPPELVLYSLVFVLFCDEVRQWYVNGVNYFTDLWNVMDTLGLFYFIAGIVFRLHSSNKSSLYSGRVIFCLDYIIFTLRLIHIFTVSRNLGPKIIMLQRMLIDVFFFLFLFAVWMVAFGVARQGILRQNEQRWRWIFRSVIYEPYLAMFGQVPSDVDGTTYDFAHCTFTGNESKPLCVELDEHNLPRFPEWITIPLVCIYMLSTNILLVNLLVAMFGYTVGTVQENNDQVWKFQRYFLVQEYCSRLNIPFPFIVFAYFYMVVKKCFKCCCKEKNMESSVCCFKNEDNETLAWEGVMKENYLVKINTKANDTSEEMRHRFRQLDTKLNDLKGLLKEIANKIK

The EC50 is the concentration needed to bring the measured effect to its halfway point. Consider `C[C@H]1CCCC(C)(C)[C@@H]1C(=O)NCc1cccs1` [(1R, 6S)-10-22], for which the EC50 at human TRPM8 stood at 1.97 µM.
Consider `COc1ccc(CNC(=O)C2[C@@H](C)CCCC2(C)C)cc1` (stereo partly drawn) [(1S, 6R)-10-28], for which the EC50 at human TRPM8 was determined as 2.42 µM.
As for `CCNC(=O)C(C)(C(C)C)C(C)C` [WS-23, reference compound], the EC50 at human TRPM8 is 23.1 µM.
Take `C[C@@H]1CCCC(C)(C)[C@H]1C(=O)NC[C@@H](O)c1ccccc1` [(1S, 6R)-10-6, (1S, 6R)-N-((S)-2-hydroxy-2-phenylethyl)-2,2,6-trimethylcyclohexane-1-carboxamide]: on human TRPM8, the EC50 was found to be 5.98 µM.
On to `C[C@H]1CCCC(C)(C)[C@@H]1C(=O)Nc1ccc(O)cc1` [(1R, 6S)-10-27], for which the EC50 at human TRPM8 worked out at 6.14 µM.
Same read-out and setting: in the case of `C[C@H]1CCCC(C)(C)C1C(=O)OC[C@@H](O)c1ccccc1` (stereo partly drawn) [(1R, 6S)-10-51] it was 1.74 µM.
For the molecule `CSc1ccc(NC(=O)[C@@H]2[C@@H](C)CCCC2(C)C)cc1` [(1R, 6S)-10-41], the EC50 on human TRPM8 is 1.06 µM.
For the molecule `CNC(=O)[C@@H]1[C@@H](C)CCCC1(C)C` (stereo in doubt) [N,2,2,6-tetramethylcyclohexanecarboxamide, reference compound], the EC50 at human TRPM8 is 110 µM.
The melting point is the temperature, or range, at which the solid turns liquid. Regarding `C[C@H]1CCCC(C)(C)[C@@H]1C(=O)NCCc1ccc(O)cc1` [(1R, 6S)-10-8, (1R, 6S)-N-(4-hydroxyphenethyl)-2,2,6-trimethylcyclohexane-1-carboxamide], the melting point lay in the range of 178 to 180 °C. For the same molecule, the 50% effective concentration (EC50) at human TRPM8 was found to be 1.19 µM.
For the molecule `COC(=O)c1ccc(NC(=O)[C@@H]2[C@@H](C)CCCC2(C)C)cc1` [(1R, 6S)-10-38], the EC50 on human TRPM8 is 5.76 µM.
Consider `C[C@@H]1CCCC(C)(C)[C@H]1C(=O)NCC(O)c1ccccc1` (stereo partly drawn) [(1S, 6R)-10-4, (1S, 6R)-N-(2-hydroxy-2-phenylethyl)-2,2,6-trimethylcyclohexane-1-carboxamide], for which the melting point is 96 to 99 °C. At human TRPM8, the EC50 was found to be 6.36 µM.
`C[C@H]1CCCC(C)(C)[C@@H]1C(=O)Nc1ccc(CCO)cc1` [(1R, 6S)-10-36] registered a melting point of 85 to 87 °C. Besides, the EC50 at human TRPM8 was determined as 1.67 µM.
In the case of `COc1ccc(CCNC(=O)[C@@H]2[C@@H](C)CCCC2(C)C)cc1OC` [(1R, 6S)-10-13], at human TRPM8, the EC50 was 7.72 µM.
Take `CCNC(=O)[C@@H]1C[C@H](C)CCC1C(C)C` (stereo partly shown) [WS-3, reference compound]: the EC50 at human TRPM8 came out at 1.61 µM.
In the case of `C[C@@H]1CCCC(C)(C)[C@H]1C(=O)NCCc1ccc(O)cc1` [(1S, 6R)-10-8, (1S, 6R)-N-(4-hydroxyphenethyl)-2,2,6-trimethylcyclohexane-1-carboxamide], the melting point lay within 180 to 182 °C. For the same molecule, on human TRPM8, the EC50 was 5.9 µM.
In the case of `C[C@H]1CCCC(C)(C)[C@@H]1C(=O)NCC(O)c1ccccc1` (stereo partly drawn) [(1R, 6S)-10-4, (1R, 6S)-N-(2-hydroxy-2-phenylethyl)-2,2,6-trimethylcyclohexane-1-carboxamide], the melting point fell in the range of 95 to 98 °C. Besides, on human TRPM8, the EC50 was found to be 0.6 µM.
Consider `C[C@H]1CCCC(C)(C)[C@@H]1C(=O)NCC(=O)c1ccccc1` [(1R)-10-10, (1R, 6S)-2,2,6-trimethyl-N-(2-oxo-2-phenylethyl) cyclohexane-1-carboxamide], for which the EC50 at human TRPM8 is 1.11 µM.
`C[C@H]1CCCC(C)(C)[C@@H]1C(=O)Nc1ccc(CC#N)cc1` [(1R, 6S)-10-42]: the EC50 at human TRPM8 is 1.77 µM.
As to `C[C@H]1CCCC(C)(C)[C@@H]1C(=O)NC[C@H](O)c1ccccc1` [(1R, 6S)-10-5, (1R, 6S)-N-((R)-2-hydroxy-2-phenylethyl)-2,2,6-trimethylcyclohexane-1-carboxamide], the EC50 at human TRPM8 amounted to 3.96 µM.
As to `C[C@H]1CCCC(C)(C)[C@@H]1C(=O)NC[C@@H](O)c1ccccc1` [(1R, 6S)-10-6, (1R, 6S)-N-((S)-2-hydroxy-2-phenylethyl)-2,2,6-trimethylcyclohexane-1-carboxamide], the melting point was in the range of 107 to 111 °C. Also, on human TRPM8, the EC50 came to 0.55 µM.
For the molecule `CC(=O)c1ccc(NC(=O)[C@@H]2[C@@H](C)CCCC2(C)C)cc1` [(1R, 6S)-10-35], at human TRPM8, the EC50 is 1.19 µM.
Take `COc1ccc(NC(=O)[C@@H]2[C@@H](C)CCCC2(C)C)cc1` [(1R, 6S)-10-28]: the EC50 at human TRPM8 is 1.59 µM.
The molecule `C[C@H]1CCCC(C)(C)[C@@H]1C(=O)NCCc1ccc(O)c(O)c1` [(1R, 6S)-10-12] yielded a melting point of 75 to 77 °C. Further, the EC50 at human TRPM8 was determined as 2.55 µM.
Turning to `C[C@H]1CCCC(C)(C)[C@@H]1C(=O)NCc1ccsc1` [(1R, 6S)-10-23], the EC50 on human TRPM8 amounted to 3.48 µM.
Turning to `CCOC(=O)CNC(=O)[C@@H]1C[C@H](C)CCC1C(C)C` (stereo partly shown) [WS-5, reference compound], the EC50 on human TRPM8 was found to be 0.73 µM.
On the same count and under the same terms, in the case of `C[C@H]1CCCC(C)(C)[C@H]1C(=O)NCC(=O)c1ccccc1` [(1S)-10-10, (1S, 6S)-2,2,6-trimethyl-N-(2-oxo-2-phenylethyl) cyclohexane-1-carboxamide] it was 2.1 µM; in that of `C[C@H]1CCCC(C)(C)[C@@H]1C(=O)Nc1ccncc1` [(1R, 6S)-10-43], 15 µM.
With `C[C@H]1CCCC(C)(C)[C@@H]1C(=O)NCCc1ccccc1` [(1R, 6S)-10-1, (1R, 6S)-2,2,6-trimethyl-N-phenethylcyclohexane-1-carboxamide], the melting point fell in the range of 79 to 82 °C. For the same molecule, on human TRPM8, the EC50 turned out to be 0.59 µM. Besides, in the series on oral cavity (30 ppm aqueous solution), the cool-feeling persistence was not below 30 min and the cooling intensity entry is reported as “very strong”. In the series on oral cavity (30 ppm aqueous solutions), the “cooling intensity compared with N,2,2,6-tetramethylcyclohexanecarboxamide, 1-menthol and WS-3” value is listed as “apparently stronger”; the “cooling intensity compared with WS-5” value is given as “stronger”.
As to `C[C@H]1CCCC(C)(C)[C@@H]1C(=O)Nc1ccc2c(c1)OCO2` [(1R, 6S)-10-33], the EC50 at human TRPM8 was found to be 3.75 µM.
The molecule `C[C@@H]1CCCC(C)(C)[C@H]1C(=O)NC[C@H](O)c1ccccc1` [(1S, 6R)-10-5, (1S, 6R)-N-((R)-2-hydroxy-2-phenylethyl)-2,2,6-trimethylcyclohexane-1-carboxamide] gave a melting point of 105 to 110 °C. Also, the EC50 at human TRPM8 was determined as 7.68 µM.
